Some test systems named below: UACC-257 melanoma; TK-10 renal; EKVX NSCLC; COLO 205 colon; SK-MEL-2 melanoma; UACC-62 melanoma; OVCAR-8 ovarian; ACHN renal; NCI-H23 lung.
What all share (assay): inhibition of tumour cell growth, NCI panel, 48 h

Drawing on PubChem BioAssay (NCI), this text covers TGI for 16 molecules.

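Cultured in 96-well plates, cells were exposed to test compound for 48 hours across five concentrations. TGI is the concentration that stops growth completely.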 Some results are limits rather than exact numbers.

For `N#Cc1c(-c2ccc(Cl)c(Cl)c2)c(-c2ccc(Cl)c(Cl)c2)nn(CC(=O)O)c1=O`, the TGI in the experiment on UACC-257 melanoma, in the experiment on TK-10 renal, in the experiment with EKVX NSCLC, in the experiment on COLO 205 colon, in the experiment with SK-MEL-2 melanoma and with UACC-62 melanoma was above 100 µM in each case. In addition, the TGI in the experiment with OVCAR-8 ovarian and in the experiment with ACHN renal was above 100 µM throughout.

As to `N#CCCN(c1ccc(C=Nc2ccccc2)cc1)S(=O)(=O)c1ccccc1`, the TGI in the experiment on NCI-H23 lung, in the experiment with UACC-257 melanoma, in the experiment on TK-10 renal, in the experiment with EKVX NSCLC, with COLO 205 colon and in the experiment with SK-MEL-2 melanoma was above 100 µM throughout. Further, the TGI in the experiment with UACC-62 melanoma and in the experiment with OVCAR-8 ovarian was above 100 µM throughout.

`O=C1C2Nc3ccccc3SC2C(=O)N1c1ccc(Br)cc1` (stereo not drawn): the TGI in the experiment with NCI-H23 lung, in the experiment on UACC-257 melanoma, in the experiment on TK-10 renal, in the experiment on EKVX NSCLC, in the experiment on COLO 205 colon and in the experiment with SK-MEL-2 melanoma was above 100 µM in each case. The TGI in the experiment with UACC-62 melanoma, with OVCAR-8 ovarian and in the experiment on ACHN renal was above 100 µM throughout.

`C[C@@H](NC1CCCC[C@H]1O)c1ccccc1` (stereo partly drawn): the TGI with NCI-H23 lung, with UACC-257 melanoma, in the experiment on TK-10 renal, in the experiment on EKVX NSCLC, in the experiment on COLO 205 colon and with SK-MEL-2 melanoma was above 100 µM in each case. In addition, the TGI with UACC-62 melanoma, with OVCAR-8 ovarian and with ACHN renal was above 100 µM throughout.

Take `CCC(C)CCOC(=O)c1ccc(N=Cc2ccc(C=Nc3ccc(C(=O)OCCC(C)CC)cc3)cc2)cc1` (stereo not drawn): the TGI in the experiment with NCI-H23 lung, in the experiment on UACC-257 melanoma, with EKVX NSCLC, in the experiment with COLO 205 colon, in the experiment with SK-MEL-2 melanoma and with UACC-62 melanoma was above 100 µM throughout. In addition, the TGI with OVCAR-8 ovarian and with ACHN renal was above 100 µM in each case.

Take `Cc1nc(-n2nc(-c3ccccc3)cc2-c2ccccc2)sc1C(=O)/C=C/c1ccc(/C=C/C(=O)c2sc(-n3nc(-c4ccccc4)cc3-c3ccccc3)nc2C)cc1`: the TGI with NCI-H23 lung is 35.3 µM; in the experiment on UACC-257 melanoma, 45.6 µM; with TK-10 renal, 87.6 µM; in the experiment with EKVX NSCLC, above 100 µM; with COLO 205 colon, 39.1 µM; with SK-MEL-2 melanoma, 51.8 µM. Besides, the TGI with OVCAR-8 ovarian was above 100 µM; in the experiment on ACHN renal, 40.2 µM.

As to `CN(CCN1C(=O)c2cc([N+](=O)[O-])cc3cc([N+](=O)[O-])cc(c23)C1=O)CCN1C(=O)c2cc([N+](=O)[O-])cc3cc([N+](=O)[O-])cc(c23)C1=O`, the TGI is 27.9 µM in the experiment with NCI-H23 lung; 9.42 µM with UACC-257 melanoma; above 100 µM in the experiment on TK-10 renal; above 100 µM with EKVX NSCLC; 14 µM in the experiment with COLO 205 colon; 5.21 µM in the experiment on SK-MEL-2 melanoma. Also, the values for the TGI in the experiment with UACC-62 melanoma, in the experiment with OVCAR-8 ovarian and in the experiment with ACHN renal were 3.8 µM, 29.6 µM and above 100 µM, respectively.

Take `Nc1ncnc2c1ncn2[C@]1(CO)C=C(CO)C(O)C1O` (stereo partly drawn): the TGI in the experiment on NCI-H23 lung, in the experiment with UACC-257 melanoma, in the experiment with TK-10 renal, with COLO 205 colon, with SK-MEL-2 melanoma and in the experiment with ACHN renal was above 100 µM in each case.

On to `COc1ccc(NC(=O)C(=O)c2c(O)c3ccc(O)cc3oc2=O)c([N+](=O)[O-])c1`, for which the TGI in the experiment with NCI-H23 lung, with UACC-257 melanoma, with TK-10 renal, in the experiment on EKVX NSCLC, with COLO 205 colon and in the experiment with SK-MEL-2 melanoma was above 100 µM throughout. The TGI in the experiment on UACC-62 melanoma and in the experiment with ACHN renal was above 100 µM in each case.

In the case of `Cc1cn(C2CC(O)C(COC(=O)c3ccccc3)O2)c(=O)[nH]c1=O` (stereo not drawn), the TGI in the experiment on NCI-H23 lung, in the experiment with UACC-257 melanoma, in the experiment with TK-10 renal, with COLO 205 colon, with UACC-62 melanoma and with OVCAR-8 ovarian was above 100 µM in each case. Moreover, the TGI in the experiment on ACHN renal is above 100 µM.

`Cc1ccc(S(=O)(=O)OCCn2cnc3nc(NC(=O)c4ccccc4)[nH]c(=O)c32)cc1`: the TGI with UACC-257 melanoma, in the experiment with TK-10 renal, with EKVX NSCLC, in the experiment on COLO 205 colon, with SK-MEL-2 melanoma and with UACC-62 melanoma was above 100 µM in each case. Besides, the TGI in the experiment with OVCAR-8 ovarian and with ACHN renal was above 100 µM each time.

In the case of `COc1ccc(C/C(=N/O)C(=O)NCCc2cc(Br)c(OCCCN(C)C)c(Br)c2)cc1Br`, the TGI came to 30.6 µM with UACC-257 melanoma; 59.8 µM in the experiment with TK-10 renal; 43 µM with EKVX NSCLC; 40.2 µM in the experiment on COLO 205 colon; 37.4 µM with SK-MEL-2 melanoma; 49.1 µM with OVCAR-8 ovarian. The TGI with ACHN renal is 30 µM.

Turning to `O=C(N/C(=C\c1ccc(Cl)cc1)c1nc2ccccc2[nH]1)c1ccccc1`, the TGI in the experiment with NCI-H23 lung was 42.9 µM; in the experiment with UACC-257 melanoma, 46.2 µM; with TK-10 renal it was 63.8 µM; with EKVX NSCLC, 58.1 µM; in the experiment with COLO 205 colon, 35.6 µM; with SK-MEL-2 melanoma, 42.2 µM. Besides, the TGI with UACC-62 melanoma worked out at 32.3 µM; in the experiment on OVCAR-8 ovarian, 52.8 µM; in the experiment on ACHN renal it was 80.5 µM.

For the molecule `CC(C)(O)[C@@H]1CC[C@@]2(C)CCCC(O)C2(O)C1` (stereo partly drawn), the TGI with NCI-H23 lung, in the experiment with UACC-257 melanoma, in the experiment on TK-10 renal, with COLO 205 colon, in the experiment on SK-MEL-2 melanoma and with UACC-62 melanoma was above 100 µM each time. The TGI with OVCAR-8 ovarian and with ACHN renal was above 100 µM in each case.

`O=C1NC(Cc2ccc(O)cc2)C(=O)N2CCCC12` (stereo not drawn): the TGI in the experiment with UACC-257 melanoma, in the experiment on TK-10 renal, in the experiment with EKVX NSCLC, in the experiment with COLO 205 colon, with SK-MEL-2 melanoma and with UACC-62 melanoma was above 100 µM in each case. Besides, the TGI in the experiment with OVCAR-8 ovarian and in the experiment with ACHN renal was above 100 µM throughout.

For the molecule `Cn1cc(C(=O)c2ccccc2)c2ccccc2c1=O`, the TGI in the experiment on UACC-257 melanoma, in the experiment on TK-10 renal, in the experiment on EKVX NSCLC, in the experiment with COLO 205 colon, in the experiment with SK-MEL-2 melanoma and with UACC-62 melanoma was above 100 µM in each case. Further, the TGI with OVCAR-8 ovarian and in the experiment with ACHN renal was above 100 µM in each case.
